This is an account of results in patent publication US20260284069A1, “PARG INHIBITORY COMPOUNDS” (FoRx Therapeutics AG, priority 2023, published 2026).

Where a name gives a salt, the structure may show the parent alone. Read-outs that look alike come from different tables or passages of the source.

The term IC50 denotes the concentration that inhibits the measured activity by half. In general, EC50 refers to the concentration at which the effect is half-maximal.

The target in one test is T1, human PARG (Homo sapiens, UniProt Q86W56, A967T/C963S/D927K/H446G/I916T/L447S/L473S/M841I/N479S/R811K/S802A/S858P/T924D).
T1 construct: human PARG (448-976 [H446G, L447S, L473S); 6His-TwinStrep (protease-cleavable) (N, cleaved yes); Gly-Ser at positions 446-447, given as H446G, L447S; host or cells: E. coli BL21 (DE3)
Kind of test: PARG enzymatic IC50 assay. The format is biochemical. Particulars: PARG protein, 2 hours incubation; substrate ADP-ribose-pNP, absorbance 405 nm; read-out: IC50 determined in PARG enzymatic assay. On the procedure: A codon optimized gene encoding human PARG (448-976 [H446G, L447S, L473S, N479S, S802A, R811K, M841I, S858P, I916T, T924D, D927K, C963S, A967T]) was synthesized by Genscript, and cloned into pET15b (NcoI/BamHI) with an N-terminal, […] protease cleavable 6His-TwinStrep tag. Expression of the protein in E. coli BL21 (DE3) was induced by addition of 0.2 mM IPTG to a shake flask culture grown to OD600=0.8 at 37° C. Growth was allowed to continue at 30° C. for a further 20 hours before harvesting by centrifugation and storage of the cell pellet at −80° C.
Protein was purified by IMAC and SEC: frozen cell pellets (typically 40 g wet weight) were resuspended by homogenization in 5 volumes buffer A (25 mM Tris/HCl pH 8.0, 200 mM NaCl, 2 mM DTT), supplemented with 1 mg of DNase I from bovine pancreas (Sigma-Aldrich) and protease inhibitors (Roche Complete™ EDTA-free protease inhibitor tablet), and lysed by passage through a Constant Systems BasicZ homogenizer. The lysate was clarified by centrifugation for 60 minutes at 25,000 g, 4° C., and the lysate supernatant was loaded onto 5 ml StrepTrap HP (Cytiva) pre-equilibrated with buffer A. The column was washed with buffer A (~10 CV), then buffer B containing 1M KCl (~5 CV), and then the protein was eluted with buffer A containing 2.5 mM d-Desthiobiotin. Pooled fractions containing 6HisTwinStrep-TEV-hPARG were incubated with TEV protease overnight at 4° C. hPARG was separated from uncleaved material and […] protease through gel filtration with Superdex75 sizing column (GE Healthcare) pre-equilibrated with SEC buffer (15 mM Tris/HCl pH 8.5, 100 mM NaCl, 2 mM DTT). Pooled fractions containing pure hPARG were concentrated using a 10 k MWCO spin concentrator (VivaSpin) to 10 mg/mL, and then either used immediately for crystallisation or snap-frozen in liquid nitrogen for storage at −80° C.
PARG enzyme as incubated with compound or vehicle (DMSO) for 2 hours in a 384 well plate. After adding the PARG substrate ADP-ribose-pNP, the plate was read for absorbance intensity at 405 nm. The vehicle (DMSO) with high absorbance intensity represents no inhibition of enzymatic reaction while the low control (no enzyme) with low absorbance intensity represents full inhibition of enzymatic reaction.
• hPARG: Peak Protein, 30 nM • Substrate: ADP-pNP, 800 μM, Jena Bioscience catalog #NU-955 • Reaction time: 60 minutes • Assay buffer: 50 mM Tris-HCl pH 8.0, 100 mM NaCl, 2 mM DTT • Temperature: 30° C. • Total volume: 30 μL
• 0% inhibition control: DMSO • 100% inhibition control: No enzyme
The protocol that was used for enzyme reaction and detection is as follows: • 1. Transfer 100 nL of the final concentration of test compounds or vehicle (DMSO) to the appropriate wells of a microtiter plate. • 2. Centrifuge the plate at 1000 rpm for 1 minute. • 3. Transfer 14.6 μL of 2× final concentration of enzyme in assay buffer or assay buffer alone to the appropriate wells. • 4. Centrifuge the plate at 1000 rpm for 1 minute. • 5. Incubate the plate at room temperature for 15 minutes or 2 hours. • 6. Transfer 15.4 μL of 2× substrate in assay buffer to all the test wells. • 7. Centrifuge the plate at 1000 rpm for 1 minute. • 8. Read the plate on a plate reader (e.g., Spark Tecan).

The target in a further test is T2, PARG (Homo sapiens, UniProt Q86W56).
T2 construct: endogenous in cells; host or cells: U2OS
Kind of test: Cellular PAR chain assay. The format is cell-based. Particulars: U2OS cells, 1 hour compound pretreatment then 1-hour TMZ treatment; % PAR chain positive cells by flow cytometry; read-out: EC50 determined in cellular PAR chain assay. As for the experimental part:
The ability of compounds to inhibit PARG in response to DNA damage, was assessed with U2OS cells pretreated with the compounds for 1 hour, following a 1-hour treatment with the DNA alkylating agent temozolomide (TMZ). […] The cells were incubated for 2 hours at room temperature with a mouse monoclonal antibody against poly (ADP) ribose (PAR) polymer. The cells were washed and incubated with an anti-mouse Alexa-488 conjugated secondary antibody for 1 hour at room temperature. Propidium iodide staining was used to determine DNA content in the cells (staining at 4° C. overnight). The fluorescence intensity of the cells was assessed by flow cytometry (Cytoflex from Beckmann) and the percentage of PAR chain positive cells (gated in relation to TMZ+DMSO treated control) was determined. PAR chain positive cells % were fit against the concentration of the compound using a 4 parameter log-logistic function, generating PAR chain EC50 values: […]
In general terms: A flow cytometer gives signals particle by particle.

In another test the test system is NCIH-460 cells. Kind of test: Cellular viability assay (NCIH-460, PARG-inhibition sensitive cell line). The test is classed as cell-based. Particulars: Homo sapiens, Cell Titer-Glo, read-out: EC50 determined in NCIH-460 cells, cellular viability assay. As for the experimental part: (§1) NCIH-460 as a PARG-inhibition sensitive cell line and U2OS as PARG-inhibition insensitive cell line were plated at 1000 cells/well and 2000 cells/well, respectively, in 96-well white plates with clear flat bottom. After 24 hours, the compounds were added with the Tecan digital dispenser (D300e), in duplicates. The outer wells of the plate were excluded. After 96 hours of incubation, 150 μl of the growth medium were removed and 50 μl of Cell Titer-Glo (Promega) were added per well. Following an incubation of 10 minutes, luminescence was read using a plate reader (Tecan). Averaged values of the samples were normalized to DMSO treated control samples. Curves were fit as % of the control vs. log of the compound concentration using a 4 parameter log-logistic function: […]

Another test relates to U2OS cells. Kind of test: Cellular viability assay (U2OS, PARG-inhibition insensitive cell line). The test is classed as cell-based. The following applies: Homo sapiens, 96 hours incubation, Cell Titer-Glo, read-out: EC50 determined in U2OS cells, cellular viability assay. As for the experimental part:
as §1
On the technique in general: ATP-based viability assays read luminescence as a measure of living cells.

Setting [1] is: NCI-H460, 96 h, 96 hours incubation.

T2 sequence (Q86W56 whole entry): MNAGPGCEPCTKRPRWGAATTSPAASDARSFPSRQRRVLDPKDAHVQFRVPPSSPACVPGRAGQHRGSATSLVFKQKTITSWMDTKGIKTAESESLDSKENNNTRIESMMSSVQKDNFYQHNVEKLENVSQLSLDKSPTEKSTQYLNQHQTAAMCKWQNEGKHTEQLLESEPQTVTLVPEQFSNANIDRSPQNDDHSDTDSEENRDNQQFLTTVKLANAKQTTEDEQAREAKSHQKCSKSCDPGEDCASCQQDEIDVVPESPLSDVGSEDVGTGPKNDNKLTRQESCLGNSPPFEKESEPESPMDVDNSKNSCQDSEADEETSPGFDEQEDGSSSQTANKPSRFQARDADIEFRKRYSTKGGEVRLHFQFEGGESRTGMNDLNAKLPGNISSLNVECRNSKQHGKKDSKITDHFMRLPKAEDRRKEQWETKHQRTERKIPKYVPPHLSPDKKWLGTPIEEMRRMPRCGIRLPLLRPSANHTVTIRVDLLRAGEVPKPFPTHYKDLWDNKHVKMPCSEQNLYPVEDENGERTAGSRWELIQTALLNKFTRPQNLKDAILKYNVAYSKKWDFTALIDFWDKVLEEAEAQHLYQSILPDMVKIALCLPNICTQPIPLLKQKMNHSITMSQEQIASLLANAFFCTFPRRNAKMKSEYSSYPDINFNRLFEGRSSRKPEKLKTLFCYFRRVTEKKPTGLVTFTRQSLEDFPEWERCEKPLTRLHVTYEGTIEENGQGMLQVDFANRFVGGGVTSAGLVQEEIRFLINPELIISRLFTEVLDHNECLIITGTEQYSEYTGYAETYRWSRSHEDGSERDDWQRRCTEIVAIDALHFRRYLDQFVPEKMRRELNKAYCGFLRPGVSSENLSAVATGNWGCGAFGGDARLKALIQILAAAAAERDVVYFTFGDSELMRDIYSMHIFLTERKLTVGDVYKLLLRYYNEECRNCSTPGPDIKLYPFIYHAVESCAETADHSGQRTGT
T1 sequence (Q86W56 446-976 H446G/L447S/L473S/N479S/S802A/R811K/M841I/S858P/I916T/T924D/D927K/C963S/A967T): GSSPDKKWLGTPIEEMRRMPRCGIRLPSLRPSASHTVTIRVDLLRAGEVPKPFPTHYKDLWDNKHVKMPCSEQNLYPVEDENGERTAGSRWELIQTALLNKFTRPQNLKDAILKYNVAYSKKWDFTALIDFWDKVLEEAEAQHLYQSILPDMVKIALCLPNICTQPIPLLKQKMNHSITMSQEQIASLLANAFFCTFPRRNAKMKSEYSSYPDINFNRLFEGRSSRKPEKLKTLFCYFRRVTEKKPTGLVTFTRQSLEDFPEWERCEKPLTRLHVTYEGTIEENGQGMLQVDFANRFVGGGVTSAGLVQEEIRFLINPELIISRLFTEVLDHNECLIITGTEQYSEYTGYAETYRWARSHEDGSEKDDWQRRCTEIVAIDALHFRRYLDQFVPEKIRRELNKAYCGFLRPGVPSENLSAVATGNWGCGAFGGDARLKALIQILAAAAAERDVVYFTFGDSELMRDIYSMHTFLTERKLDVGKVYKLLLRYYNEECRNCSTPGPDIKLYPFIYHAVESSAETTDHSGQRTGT

Turning to `CC1(NS(=O)(=O)c2cc(C3=CCNCC3)c3c(C4CC4)nc(-c4nnc(C(F)F)s4)n3c2)CC1` [Example 11, 1-cyclopropyl-3-(5-(difluoromethyl)-1,3,4-thiadiazol-2-yl)-N-(1-methylcyclopropyl)-8-(1,2,3,6-tetrahydropyridin-4-yl)imidazo[1,5-alpyridine-6-sulfonamide formate], on human PARG, the half-inhibitory concentration (IC50) stood at 0.016 µM. Further, the concentration for a half-maximal effect (EC50) at PARG stood at 0.009 µM; in the test with NCIH-460 cells (NCI-H460, 96 hours incubation) it was 0.074 µM; in the test with U2OS cells, 1720 µM.
As for `CC1(NS(=O)(=O)c2cc(C3=CCNCC3)c3c(C(F)(F)F)nc(-c4nnc(C(F)F)s4)n3c2)CC1` [Example 12, 3-(5-(difluoromethyl)-1,3,4-thiadiazol-2-yl)-N-(1-methylcyclopropyl)-8-(1,2,3,6-tetrahydropyridin-4-yl)-1-(trifluoromethyl)imidazo[1,5-a]pyridine-6-sulfonamide formate], the 50% inhibitory concentration (IC50) on human PARG amounted to 0.011 µM. For the same compound, the EC50 at PARG turned out to be 0.006 µM; with NCIH-460 cells (setting [1]), 0.094 µM; in the test with U2OS cells (U2OS, 96 h), 3.87 µM.
Turning to `C[C@H]1CN(c2cc(S(=O)(=O)NC3(C)CC3)cn3c(-c4nnc(C(F)F)s4)nc(F)c23)C[C@H](C)N1` [Example 13, 3-(5-(difluoromethyl)-1,3,4-thiadiazol-2-yl)-8-((3S,5S)-3,5-dimethylpiperazin-1-yl)-1-fluoro-N-(1-methylcyclopropyl)imidazo[1,5-a]pyridine-6-sulfonamide], at human PARG, the IC50 was found to be 0.016 µM. The 50% effective concentration (EC50) on PARG is 0.005 µM; in the test on NCIH-460 cells (setting [1]), 0.035 µM; with U2OS cells (U2OS, 96 h), 3.59 µM.
In the case of `CC1(C)CN(c2cc(S(=O)(=O)NC3(C)CC3)cn3c(-c4nnc(C(F)F)s4)ncc23)CC(CO)N1` (stereo not drawn) [Example 14, 3-(5-(difluoromethyl)-1,3,4-thiadiazol-2-yl)-8-(5-(hydroxymethyl)-3,3-dimethylpiperazin-1-yl)-N-(1-methylcyclopropyl)imidazo[1,5-a]pyridine-6-sulfonamide], the 50% inhibitory concentration (IC50) at human PARG worked out at 0.011 µM. For the same compound, the EC50 with NCIH-460 cells (setting [1]) was 0.094 µM; with U2OS cells (U2OS, 96 h), 9.52 µM.
